Type in all cases: in vivo, male Wistar rats
Data set [1] is described as follows: Plasma and inner ear fluid exposure after single oral gavage (Example 1). Particulars: single oral 30 mg/kg; for concentration at 2 h: T0 + 2 hours; for concentration at 4 h: T0 + 4 hours. How it is done: Two compositions were prepared: composition A and composition B.
Composition A is an aqueous solution comprising: • 6 mg/mL (free base equivalent) of fumarate salt of 1-[2-(4-biphenylyl)ethyl]-4-(3-trifluoromethylphenyl)-1,2,3,6-tetrahydropyridine (=paliroden fumarate), and • 0.6% w/v of methylcellulose with respect to the total volume of the aqueous solution.
Composition B is an aqueous solution comprising: • 4 mg/mL (free base equivalent) of hydrochloride salt of 1-[2-(2-naphthyl)ethyl]-4-(3-trifluoromethylphenyl)-1,2,3,6-tetrahydropyridine (=xaliproden hydrochloride), and • 10% w/v of arabic gum with respect to the total mass of the aqueous solution.
Composition A and composition B were administered to male Wistar rats (5 animals per active agent and timepoint), as described below.
Composition A was administered to 15 male Wistar rats, once, at time TO, via oral injection by gavage, at a dose of 5 mL of composition A per kilogram of the animal, i.e. a dose of 30 mg of paliroden fumarate per kilogram of the animal. The concentration of paliroden in rats plasma and in rats inner ear fluid (IEF) was measured at 6 timepoints, 5 rats being used at each timepoint for the concentration measurements (in the plasma and optionally in the IEF). The timepoints are T0+1 hour, T0+2 hours, T0+4 hours, T0+6 hours, T0+8 hours and T0+24 hours for the concentration measurement in the rats plasma. The timepoints are T0+2 hours, T0+4 hours and T0+24 hours for the concentration measurement in the rats inner ear fluid, as part of a terminal procedure including cochlea sampling and inner ear fluids collection from both ears of the rats. Bioanalytical methods were validated in both matrices (lithium heparin plasma and inner ear fluid) with a range of 0.25 to 500 ng/mL in plasma and 0.25 to 100 ng/mL in inner ear fluids.
Composition B was administered to 15 others male Wistar rats, once, at time T0, via oral injection by gavage, at a dose of 5 mL of composition B per kilogram of the animal, i.e. a dose of 20 mg of xaliproden hydrochloride per kilogram of the animal. The concentration of xaliproden in rats plasma and in rats inner ear fluid (IEF) was measured at 6 timepoints, 5 rats being used at each timepoint for the concentrations measurements (in the plasma and optionally in the IEF). The timepoints are T0+1 hour, T0+2 hours, T0+4 hours, T0+6 hours, T0+8 hours and T0+24 hours for the concentration measurement in the rats plasma. The timepoints are T0+2 hours, T0+4 hours and T0+24 hours for the concentration measurement in the rats inner ear fluid, as part of a terminal procedure including cochlea sampling and inner ear fluids collection from both ears of the rats. Bioanalytical methods were validated in both matrices (lithium heparin plasma and inner ear fluid) with a range of 0.25 to 500 ng/mL in plasma and 0.25 to 500 ng/mL in inner ear fluids.

A short description of data set [2]: Plasma and inner ear fluid exposure after single trans-tympanic injection in thermoreversible hydrogel composition (Example 4). Particulars: for concentration at 7 days / concentration at 168 h / concentration at 1 h / concentration at 24 h: male, Wistar, other: trans-tympanic injection; for concentration at 7 days: inner ear fluid, read-out: Concentrations in the inner ear fluid at 7 days post injection; for concentration at 168 h: 300 μg in one ear, T0 + 168 hours; for concentration at 1 h: T0 + 1 hour; for concentration at 24 h: T0 + 24 hours. Here is the method: Composition 4P and composition 4X as described in example 2 were administered to male Wistar rats (5 animals per active agent and timepoint), as described below.
At time T0, 30 μL of composition 4P were administered to 15 rats, in a single ear via trans-tympanic injection. The dose of paliroden fumarate that has been administered is thus of 300 μg in one ear of each rat.
At time T0, 30 μL of composition 4X were administered to 15 other rats, in a single ear via trans-tympanic injection. The dose of xaliproden hydrochloride that has been administered is thus of 150 μg in one ear of each rat.
For the 15 rats that have received composition 4P and for the 15 rats that have received composition 4X, plasmatic and inner ear expositions were determined via blood and cochlea terminal sampling in order to achieve lithium-heparin plasma and inner ear fluid preparation, at T+1 hour, T+24 hours and T+168 hours. Bioanalytical methods were validated in both matrices (lithium heparin plasma and inner ear fluid) with a range of 0.2 to 815 ng/mL for paliroden (fumarate salt) and 0.38 to 763 ng/mL for xaliproden (hydrochloride salt).

The test system of data set [3] is synaptic ribbons in inner hair cells. Kind of data set: Ribbon synapse immunostaining and counting in cochlea, immediate treatment (Example 6). Particulars: 2 hours and 8 days post-noise. How it is done: At T+28DAYS, after DPOAE/ABR measures, 10 cochleae (all eight (8) left cochleae and two (2) right cochleae taken randomly) per group were rapidly sampled and immediately fixed by PFA perfusion (through the round and oval windows with PFA 4% after creating a small hole at the apex) in order to performed ribbon synapse immunostaining and analysis. Cochleae were fixed for 1 hour in a 4% PFA solution and decalcified in undiluted RDO (10 mL/cochlea for a minimum of 2 hours). The membranous and sensory spiral containing the organ of Corti are dissected out as a flat surface preparation under a dissecting microscope and immunolabelled with appropriate antibodies: • Vglut3 (Vglut3-Guinea Pig IgG; #135 204, Synaptic systems and Anti-Guinea Pig IgG (H+L), #A21450; Thermo Fisher Scientific 647 nm Far-Red) to stain inner hair cell bodies (vesicular glutamate transporter). • Homer (Homer-Rabbit IgG; #GTX103278; Genetex and Anti-Rabbit IgG (H+L) #A11008 Thermo Fisher Scientific 568 nm Red) to stain dendritic proteins of auditory nerve fibers connecting to IHC (post-synaptic). • CtBP2 (CtBP2-Mouse-IgG1; #612044; BD Transduction Laboratories and Anti-Mouse IgG1, #A21121, Thermo Fisher Scientific 488 Green) to stain the ribeye protein as pre-synaptic marker in IHC. • Phalloidin (Alexa Fluor™ Plus 405 Phalloidin; #A30104; Thermo Fisher Scientific 405 Blue).
Images were acquired on a confocal microscope and the slides were analyzed to i) evaluate by visual observation the presence of OHC (outer hair cells) and IHC (inner hair cells) (based on nuclei staining with CtBP2 and HC cell body staining with phalloidin) and ii) count the number of synaptic ribbons in selected inner hair cells in cochlea regions coding sound of selected frequency (16 kHz, 25 kHz and 32 kHz).
The number of pre- (CtBP2) and post-synaptic (Homer) labeled spots was counted using Imaris software in 3 dimensions for each image. Co-localization of pre- and post-synaptic elements was defined as a distance of maximum […] between CtBP2- and Homer-labeled spots, using an in-house Matlab program to calculate the distances between CtBP2 and Homer labels from the x, y, and z coordinates.

Where [4] appears, read: male, Wistar, plasma, rat, read-out: Concentration of paliroden (fumarate salt), Plasma, Mean.
Setting [5] is: male, Wistar, rat inner ear fluid, read-out: Concentration of paliroden (fumarate salt), IEF, Mean.
[6] abbreviates: rat inner ear fluid, trans-tympanic 300 μg, thermoreversible hydrogel, read-out: Concentration of paliroden (fumarate salt), IEF, Mean.
Setting [7] is: plasma, rat, trans-tympanic 300 μg one ear, suspension in thermoreversible hydrogel, read-out: Concentration of paliroden (fumarate salt), Plasma, Mean.

SMILES strings stand for the structures. Structures can show the parent of a compound that is named as a salt. Where two headings read alike, the source gives them in different places.

`FC(F)(F)c1cccc(C2=CCN(CCc3ccc(-c4ccccc4)cc3)CC2)c1` [paliroden (fumarate salt), 1-[2-(4-biphenylyl)ethyl]-4-(3-trifluoromethylphenyl)-1,2,3,6-tetrahydropyridine]: the concentration at 1 h in data set [1] (male, Wistar, plasma, rat, T0 + 1 hour, read-out: Concentration of paliroden (fumarate salt), Plasma, Mean) is 35 ng/mL; in data set [2] (setting [6]), 5490 ng/mL; in data set [2] (setting [7]), 1 ng/mL. The concentration at 2 h is 106 ng/mL in data set [1] (setting [4]) and 10.9 ng/mL in data set [1] (setting [5]). For the same compound, the figures for the concentration at 4 h in data set [1] (setting [4]) and in data set [1] (setting [5]) were 3.1 ng/mL and 2.6 ng/mL, respectively. For the same compound, the concentration at 6 h in data set [1] (male, Wistar, plasma, rat, T0 + 6 hours, read-out: Concentration of paliroden (fumarate salt), Plasma, Mean) amounted to 4.4 ng/mL. Further, the concentration at 8 h in data set [1] (male, Wistar, plasma, rat, T0 + 8 hours, read-out: Concentration of paliroden (fumarate salt), Plasma, Mean) turned out to be 1.6 ng/mL. Further, the concentration at 24 h is 1.7 ng/mL in data set [1] (male, Wistar, plasma, rat, T0 + 24 hours, read-out: Concentration of paliroden (fumarate salt), Plasma, Mean); 1370 ng/mL in data set [2] (setting [6]); 0.4 ng/mL in data set [2] (setting [7]). Besides, the “Concentration of paliroden (fumarate salt), IEF, Mean” value in data set [1] (rat inner ear fluid, T0 + 24 hours) was “BLQ”. Moreover, the concentration at 7 days is approximately 1200 nM in data set [2] (300 μg, rat, trans-tympanic injection, thermoreversible hydrogel, approximate conversion) and approximately 600 ng/mL in data set [2] (rat, trans-tympanic injection, thermoreversible hydrogel). The concentration at 168 h in data set [2] (rat inner ear fluid, trans-tympanic 300 μg, thermoreversible hydrogel, n = 4, read-out: Concentration of paliroden (fumarate salt), IEF, Mean) was 687 ng/mL; in data set [2] (setting [7]), 0.2 ng/mL. Further, the “High concentrations rapidly reached in the inner ear fluid” value in data set [2] (rat, trans-tympanic injection, suspension in thermoreversible hydrogel, summary) was “approximately 5000 ng/mL”. Moreover, the “High concentrations rapidly reached in the IEF (molar)” value in data set [2] (rat, trans-tympanic injection, thermoreversible hydrogel, approximate conversion) is given as “approximately 10 μM”. Further, the “Number of pre-synaptic elements CtBP2 per IHC” value in data set [3] (25 kHz and 32 kHz, vs traumatized vehicle group) was “increase”. Also, the “Number of colocalized ribbons per IHC” value in data set [3] (25 kHz, vs traumatized vehicle group, paliroden 300 μg/ear, xaliproden 150 μg/ear) is given as “increase”. Besides, in data set [3] (regions coding high frequency sounds), the “Synapse loss in the inner hair cells” value was “tend to repair synapse loss”.

The record behind these values is US20230390273A1, “4-PHENYL-TETRAHYDROPYRIDINE DERIVATIVES FOR TREATING HEARING DISEASES” (CILCARE DEV, priority 2021, published 2023).
